Assay results published in patent publication EP0332387B1, “Triazole derivatives, their preparation and their use as fungicides” (Sankyo Company Limited, priority 1988, dated 1989).

Legend:
Assay type in all cases: in vivo
[1] = tested on: Rhizoctonia solani; assay: Preventive activity against sheath blight of rice plants (Experiment 2); parameters: key: 0 = disease as untreated, 5 = no disease (complete control); conditions: rice seedlings (variety Nihonbare), sprayed at 100 ppm (30 ml/3 pots) 24 hours before inoculation, 5 days; height of the lesions
Procedure: Rice seedlings (variety Nihonbare) at the 4 - 5 leaf stage were sprayed with an aqueous suspension of the test compound at a concentration of 100 ppm (30 ml/3 pots). The seedlings were then kept for 24 hours at room temperature, after which they were inoculated with the fungus, Rhizoctonia solani, by placing 4 - 5 oat grains on which the fungus had previously been cultured around the base of each seedling. The seedlings were then kept in a moist chamber for 5 days at 25 - 27 °C. The disease controlling index was given on the basis of the height of the lesions formed on the rice seedlings.
Except in Table 12G, the compounds tested have the formula (1-1), in which Ar represents the group shown at the beginning of each part of the Table and R^1, R^2, X and Y are as defined in the Table.
(§1) The disease controlling index shown in the foregoing Tables 11 to 19 is indicated by the following codes: • 5--no disease (complete control) • 4--disease rate is less than 10% of the untreated plant • 3--disease rate is 10% - 30% of the untreated plant • 2--disease rate is 30% - 50% of the untreated plant • 1--disease rate is 50% - 70% of the untreated plant • 0--disease rate is almost same as the untreated plant.

[2] = tested on: Puccinia recondita; assay: Curative activity against leaf rust of wheat (Experiment 6); conditions: wheat seedlings (variety Norin No 61), sprayed after inoculation at 3 ppm (30 ml/3 pots), 10 days; diseased area on the first leaf
Procedure: Wheat seedlings (variety Norin No 61) at the first leaf stage were inoculated with the fungus, Puccinia recondita, by spraying them with a spore suspension of the fungus. They were then kept in a moist chamber for 24 hours at 20 - 22 °C, after which they were moved to a greenhouse at 15 - 20 °C. […] The seedlings were then continuously kept in the greenhouse for 10 days. The disease controlling index was given on the basis of diseased area on the first leaf.

[3] = tested on: Erysiphe graminis f.sp. hordei; assay: Curative activity against powdery mildew of barley (Experiment 7); conditions: barley seedlings (variety Sekishinriki), sprayed one day after inoculation at 3 ppm (30 ml/3 pots), further 10 days; diseased area on the first leaf
Procedure: Barley seedlings (variety […]) at the first leaf stage were inoculated with conidia of Erysiphe graminis f.sp. hordei and kept in a greenhouse at 15 - 20°C. After one day, the seedlings were sprayed with an aqueous suspension of the test compound at a concentration of 3 ppm (30 ml/3 pots), and they continued to be kept in the greenhouse at that temperature for a further 10 days. The disease controlling index was given on the basis of the diseased area on the first leaf.

[4] = tested on: Venturia inaequalis; assay: Preventive activity against apple scab (Experiment 9); conditions: apple seedlings sprayed at 300 ppm, inoculated after 24 hours, 3 days moist chamber then 10 days greenhouse; diseased area on third and fourth leaves
Procedure: Apple seedlings at the 3 - 4 leaf stage were sprayed with an aqueous suspension of the test compound at a concentration of 300 ppm (30 ml/3 pots). The seedlings were then kept for 24 hours at room temperature, after which they were inoculated with the fungus, Venturia inaequalis, by spraying a spore suspension of the fungus over the seedlings. After inoculation, the seedlings were kept in a moist chamber for 3 days at 20 - 22 °C and then moved to a greenhouse at 20 - 22°C for 10 days. The disease controlling index was given on the basis of the diseased area on the third and fourth leaves.

[5] = tested on: Gibberella Fujikuroi; assay: Activity against bakanae disease of rice plants by seed soaking (Experiment 5); parameters: key: 0 = disease as untreated, 5 = no disease (complete control); conditions: infected rice seeds (variety Tanginbozu) immersed 3 days in aqueous suspension (concentration not given), 3 weeks; number of diseased seedlings
Procedure: Ten grams of rice seeds (variety Tanginbozu), infected with Gibberella Fujikuroi, were immersed in 20 ml of an aqueous suspension of the test compound for 3 days. At the end of this time, the treated seeds were densely sown in soil in pots, and the pots were placed in a greenhouse at 20 - 30 °C for 3 weeks. The disease controlling index was given on the basis of the number of diseased seedlings.
(§2) The compounds tested have the formula (1-1), in which Ar represents the group shown at the beginning of each part of the Table and R^1, R^2, X and Y are as defined in the Table.
as §1

[6] = tested on: Sphaerotheca fuliginea; assay: Preventive activity against powdery mildew of cucumber (Experiment 8); conditions: cucumber seedlings sprayed at 300 ppm, inoculated after 24 hours, evaluated after 7 days in greenhouse; diseased area on third and fourth leaves
Procedure: Cucumber seedlings (variety Sagamihanpaku) at the 3 - 4 leaf stage were sprayed with an aqueous suspension of the test compound at a concentration of 300 ppm (30 ml/3 pots). The seedlings were then kept for 24 hours at room temperature, after which they were inoculated with conidida of Sphaerotheca fuliginea. After keeping the seedlings in a greenhouse for 7 days, the disease controlling index was evaluated on the basis of the diseased area on the third and fourth leaves.

[7] = tested on: Pyricularia oryzae; conditions: rice seedlings (variety Sachikaze), sprayed 24 hours after inoculation at 10 ppm (30 ml/3 pots), further 6 days; number of lesions on the upper two leaves
[8] = tested on: Rhizoctonia solani; assay: Curative activity against sheath blight of rice plants (Experiment 3); parameters: key: 0 = disease as untreated, 5 = no disease (complete control); conditions: rice seedlings (variety Nihonbare), sprayed 24 hours after inoculation at 10 ppm (30 ml/3 pots), further 5 days; height of the lesions
Procedure: Rice seedlings (variety Nihonbare) at the 4 - 5 leaf stage were inoculated with the fungus, Rhizoctonia solani, by placing 4 - 5 oat grains on which the fungus had previously been cultured around the base of each rice seedling and keeping them in a moist chamber at 25 - 27 °C. After 24 hours, the rice seedlings were sprayed with an aqueous suspension of the test compound at a concentration of 10 ppm (30 ml/3 pots) and they then continued to be kept in the moist chamber for a further 5 days. The disease controlling index was given on the basis of the height of the lesions formed on the rice seedlings.
as §2, §1

Structure (SMILES) | disease controlling index [1] | disease controlling index [2] | disease controlling index [3] | Index (disease controlling index) [4] | disease controlling index [5] | Index (disease controlling index) [6] | disease controlling index [7] | disease controlling index [8]
C[C@@H](NC(=O)c1ccc(F)cc1)[C@](O)(Cn1cncn1)c1ccc(Cl)cc1Cl (relative stereo) [Example 4, (2R*, 3R*)-2-(2,4-Dichlorophenyl)-3-(4-fluorobenzoylamino)-1-(1 H-1 ,2,4-triazol-1-yl)-2-butanol] | 4 (disease rate is less than 10% of the untreated plant) | 5 | 5 | 5 |  |  |  | 
C[C@@H](NC(=O)c1ccc(Cl)cc1Cl)[C@](O)(Cn1cncn1)c1ccc(Cl)cc1Cl (relative stereo) [Example 11, (2R*, 3R*)-3-(2,4-Dichlorobenzoylamino)-2-(2,4-dichlorophenyl)-1-(1H-1,2,4-triazol-1-yl)-2-butanol] | 4 (disease rate is less than 10% of the untreated plant) |  |  | 5 | 4 (disease rate is less than 10% of the untreated plant) | 5 |  | 
C[C@@H](NC(=O)c1ccc(C(F)(F)F)cc1)[C@](O)(Cn1cncn1)c1ccc(Cl)cc1Cl (relative stereo) [Example 12, (2R*, 3R*)-2-(2,4-Dichlorophenyl)-1-(1H-1,2,4-triazol-1-yl)-3-(4-trifluoromethylbenzoylamino)-2-butanol] | 5 | 5 | 5 | 5 | 4 (disease rate is less than 10% of the untreated plant) | 5 | 5 | 5
C[C@@H](NC(=O)c1ccc(F)cc1)[C@](O)(Cn1cncn1)c1ccc(F)cc1F (relative stereo) [Example 15, (2R*, 3R*)-2-(2,4-Difluorophenyl)-3-(4-fluorobenzoylamino)-1-(1H-1,2,4-triazol-1-yl)-2-butanol] |  | 5 | 5 |  | 4 (disease rate is less than 10% of the untreated plant) | 5 |  | 
C[C@@H](N=[N+]=[N-])[C@](O)(Cn1cncn1)c1ccc(Cl)cc1 (relative stereo) [Example 63, (2R*, 3R*)-3-Azido-2-(4-chlorophenyl)-1-(1H-1,2,4-triazol-1-yl)-2-butanol] |  |  |  |  | 5 |  |  | 
C[C@@H](N1C(=O)c2ccc(Cl)cc2C1=O)[C@](O)(Cn1cncn1)c1ccc(F)cc1F (relative stereo) [Example 135, (2R*, 3R*)-2-(2,4-Difluorophenyl)-3-(4-chlorophthalimido)-1-(1H-1,2,4-triazol-1-yl)-2-butanol] |  | 5 | 5 |  | 4 (disease rate is less than 10% of the untreated plant) | 5 | 4 (disease rate is less than 10% of the untreated plant) | 
CC[C@@H](OC1CCCCO1)[C@](O)(Cn1cncn1)c1ccc(F)cc1F (relative stereo) [Example 202, (2R^*, 3R*)-2-(2,4-Difluorophenyl)-3-tetrahydropyranyloxy)-1-(1H-1,2,4-triazol-1-yl)-2-pentanol] | 4 (disease rate is less than 10% of the untreated plant) | 5 | 5 |  |  |  | 4 (disease rate is less than 10% of the untreated plant) | 4 (disease rate is less than 10% of the untreated plant)
C[C@@H](NC(=O)c1ccc(C(F)(F)F)cc1)[C@](O)(Cn1cncn1)c1ccc(Cl)cc1Cl [Example 13, (2R, 3R)-2-(2,4-Dichlorophenyl)-3-(4-trifluoromethylbenzoylamino)-1-(1H-1,2,4-triazol-1-yl)-2-butanol] | 4 (disease rate is less than 10% of the untreated plant) | 5 | 5 |  | 5 | 5 | 5 | 
